Laboratory results reported in EP0908457B1, “3-(1,2-benzisothiazol- and isoxazol-5-Y1)-2,4(1H,3H)-pyrimidinedione or thione and 3-(1,2-benzisothiazol- and isoxazol-5-y1)-4(3H)-pyrimidinone or thione herbicidal agents” (BASF AKTIENGESELLSCHAFT, priority 1997, dated 1999).

Assays:
Format in all cases: in vivo
[1] = system: Monochoria vaginalis, Presl.; experiment: Preemergence weed control under flooded paddy conditions, MOOVA (Monochoria); details: flooded paddy; for herbicidal effect rating, MOOVA / MOOVA herbicidal rating: preemergence; for MOOVA: preemergence weeds, herbicidal effect rating 0-9, three to four weeks after treatment
[2] = system: Cyperus serotinus, Rottb.; experiment: Preemergence weed control under flooded paddy conditions, CYPSE (Flatsedge); details: for herbicidal effect rating, CYPSE / CYPSE herbicidal rating: preemergence; for CYPSE: preemergence weeds, herbicidal effect rating 0-9, three to four weeks after treatment
[3] = system: Echinochloa oryzoides (Ard.) Fritsch.; experiment: Preemergence weed control under flooded paddy conditions, ECHORC (Watergrass (Calif.)); details: flooded paddy; for herbicidal effect rating, ECHORC / ECHORC herbicidal rating: preemergence; for ECHORC: preemergence weeds, herbicidal effect rating 0-9, three to four weeks after treatment
Sagittaria pygmaea, L. = experiment: Preemergence weed control under flooded paddy conditions, SAGPY (Arrowhead (Pygmaea)); details: flooded paddy; for herbicidal effect rating, SAGPY / SAGPY herbicidal rating: preemergence; for SAGPY: preemergence weeds, herbicidal effect rating 0-9, three to four weeks after treatment
Cyperus iria = experiment: Preemergence weed control under flooded paddy conditions, CYPIR (Rice Flatsedge); details: flooded paddy; for herbicidal effect rating, CYPIR / CYPIR herbicidal rating: preemergence; for CYPIR: preemergence weeds, herbicidal effect rating 0-9, three to four weeks after treatment
[4] = Rate 0.0320 kg/ha, rated three to four weeks after treatment
[5] = Rate 0.0620 kg/ha, rated three to four weeks after treatment
[6] = Rate 0.1250 kg/ha, rated three to four weeks after treatment
[7] = Rate 0.2500 kg/ha, rated three to four weeks after treatment
[8] = Rate 0.0320 kg/ha, rated 3-4 weeks after treatment
[9] = Rate 0.0620 kg/ha, rated 3-4 weeks after treatment
[10] = Rate 0.1250 kg/ha, rated 3-4 weeks after treatment
[11] = Rate 0.2500 kg/ha, rated 3-4 weeks after treatment
[12] = 0.0320 kg/ha, rated three to four weeks after treatment
[13] = 0.0620 kg/ha, rated three to four weeks after treatment
[14] = 0.1250 kg/ha, rated three to four weeks after treatment
[15] = 0.2500 kg/ha, rated three to four weeks after treatment

## Cn1c(C(F)(F)F)cc(=O)n(-c2ccc3snc(CS(=O)(=O)c4ccccc4)c3c2)c1=O [Example 393, 2,4(1H,3H)-Pyrimidinedione, 1-methyl-3-{3-[(phenylsulfonyl)methyl]-1,2-benzisothiazol-5-yl}-6-(trifluoromethyl)-]
[1]; [4]
  herbicidal effect rating, MOOVA: 7.0
[1]; [5]
  herbicidal effect rating, MOOVA: 8.0
[1]; [6]
  herbicidal effect rating, MOOVA: 8.0
[1]; [7]
  herbicidal effect rating, MOOVA: 9.0
[2]; [4]
  herbicidal effect rating, CYPSE: 0.0
[2]; [5]
  herbicidal effect rating, CYPSE: 0.0
[2]; [6]
  herbicidal effect rating, CYPSE: 3.0
[2]; [7]
  herbicidal effect rating, CYPSE: 6.0
[3]; [4]
  herbicidal effect rating, ECHORC: 2.0
[3]; [5]
  herbicidal effect rating, ECHORC: 4.0
[3]; [6]
  herbicidal effect rating, ECHORC: 4.0
[3]; [7]
  herbicidal effect rating, ECHORC: 9.0
Sagittaria pygmaea, L.; [4]
  herbicidal effect rating, SAGPY: 0.0
Sagittaria pygmaea, L.; [6]
  herbicidal effect rating, SAGPY: 3.0
Sagittaria pygmaea, L.; [7]
  herbicidal effect rating, SAGPY: 4.0
Cyperus iria; [4]
  herbicidal effect rating, CYPIR: 0.0
Cyperus iria; [5]
  herbicidal effect rating, CYPIR: 3.0
Cyperus iria; [6]
  herbicidal effect rating, CYPIR: 3.0
Cyperus iria; [7]
  herbicidal effect rating, CYPIR: 6.0

## 2,4(1H,3H)-Pyrimidinedione, 1-methyl-3-[(2-methylbutyryl)-1,2-benzisothiazol-5-yl]-6-(trifluoromethyl)- [Example 433]
[1]; 0.0320 kg/ha
  MOOVA: 8.5
[1]; 0.0620 kg/ha
  MOOVA: 9.0
[1]; 0.1250 kg/ha
  MOOVA: 9.0
[1]; 0.2500 kg/ha
  MOOVA: 9.0
[2]; 0.0320 kg/ha
  CYPSE: 0.0
[2]; 0.0620 kg/ha
  CYPSE: 6.0
[2]; 0.1250 kg/ha
  CYPSE: 7.5
[2]; 0.2500 kg/ha
  CYPSE: 7.5
[3]; 0.0320 kg/ha
  ECHORC: 8.0
[3]; 0.0620 kg/ha
  ECHORC: 9.0
[3]; 0.1250 kg/ha
  ECHORC: 9.0
[3]; 0.2500 kg/ha
  ECHORC: 9.0
Sagittaria pygmaea, L.; 0.0320 kg/ha
  SAGPY: 2.0
Sagittaria pygmaea, L.; 0.0620 kg/ha
  SAGPY: 4.5
Sagittaria pygmaea, L.; 0.1250 kg/ha
  SAGPY: 6.0
Sagittaria pygmaea, L.; 0.2500 kg/ha
  SAGPY: 7.0
Cyperus iria; 0.0320 kg/ha
  CYPIR: 5.5
Cyperus iria; 0.0620 kg/ha
  CYPIR: 8.5
Cyperus iria; 0.1250 kg/ha
  CYPIR: 9.0
Cyperus iria; 0.2500 kg/ha
  CYPIR: 9.0

## COc1ccc(C)cc1-c1nsc2cc(Cl)c(-n3c(=O)cc(C(F)(F)F)n(C)c3=O)cc12 [Example 442, 2,4(1H,3H)-Pyrimidinedione, 3-[6-chloro-3-(6-methoxy-m-tolyl)-1,2-benzisothiazol-5-yl]-1-methyl-6-(trifluoromethyl)-]
[1]; 0.0320 kg/ha
  MOOVA: 6.0
[1]; 0.0620 kg/ha
  MOOVA: 8.3
[1]; 0.1250 kg/ha
  MOOVA: 9.0
[1]; 0.2500 kg/ha
  MOOVA: 9.0
[2]; 0.0320 kg/ha
  CYPSE: 0.0
[2]; 0.0620 kg/ha
  CYPSE: 0.0
[2]; 0.1250 kg/ha
  CYPSE: 0.0
[2]; 0.2500 kg/ha
  CYPSE: 4.5
[3]; 0.0320 kg/ha
  ECHORC: 8.3
[3]; 0.0620 kg/ha
  ECHORC: 9.0
[3]; 0.1250 kg/ha
  ECHORC: 9.0
[3]; 0.2500 kg/ha
  ECHORC: 9.0
Sagittaria pygmaea, L.; 0.0320 kg/ha
  SAGPY: 1.3
Sagittaria pygmaea, L.; 0.0620 kg/ha
  SAGPY: 1.7
Sagittaria pygmaea, L.; 0.1250 kg/ha
  SAGPY: 2.0
Sagittaria pygmaea, L.; 0.2500 kg/ha
  SAGPY: 4.0
Cyperus iria; 0.0320 kg/ha
  CYPIR: 4.3
Cyperus iria; 0.0620 kg/ha
  CYPIR: 6.3
Cyperus iria; 0.1250 kg/ha
  CYPIR: 8.7
Cyperus iria; 0.2500 kg/ha
  CYPIR: 9.0

## CCCCS(=O)(=O)OCc1nsc2ccc(-n3c(=O)cc(C(F)(F)F)n(C)c3=O)cc12 [Example 381, 2,4(1H,3H)-Pyrimidinedione, 3-[3-(hydroxymethyl)-1,2-benzisothiazol-5-yl]-1-methyl-6-(trifluoromethyl)-, butanesulfonate (ester)]
[1]; [4]
  herbicidal effect rating, MOOVA: 6.0
[1]; [5]
  herbicidal effect rating, MOOVA: 7.0
[1]; [6]
  herbicidal effect rating, MOOVA: 8.0
[1]; [7]
  herbicidal effect rating, MOOVA: 8.0
[2]; [4]
  herbicidal effect rating, CYPSE: 0.0
[2]; [5]
  herbicidal effect rating, CYPSE: 4.0
[2]; [6]
  herbicidal effect rating, CYPSE: 7.0
[2]; [7]
  herbicidal effect rating, CYPSE: 7.0
[3]; [4]
  herbicidal effect rating, ECHORC: 0.0
[3]; [5]
  herbicidal effect rating, ECHORC: 3.0
[3]; [6]
  herbicidal effect rating, ECHORC: 4.0
[3]; [7]
  herbicidal effect rating, ECHORC: 6.0
Sagittaria pygmaea, L.; [4]
  herbicidal effect rating, SAGPY: 3.0
Sagittaria pygmaea, L.; [5]
  herbicidal effect rating, SAGPY: 5.0
Sagittaria pygmaea, L.; [6]
  herbicidal effect rating, SAGPY: 6.0
Sagittaria pygmaea, L.; [7]
  herbicidal effect rating, SAGPY: 7.0
Cyperus iria; [4]
  herbicidal effect rating, CYPIR: 6.0
Cyperus iria; [5]
  herbicidal effect rating, CYPIR: 7.0
Cyperus iria; [6]
  herbicidal effect rating, CYPIR: 8.0
Cyperus iria; [7]
  herbicidal effect rating, CYPIR: 8.0

## Cc1ccc(OCC(=O)OCC2CCOC2)c(-c2nsc3ccc(-n4c(=O)cc(C(F)(F)F)n(C)c4=O)cc23)c1 (racemic) [Example 535, Acetic acid, {{2-{5-[3,6-dihydro-3-methyl-2,6-dioxo-4-(trifluoromethyl)-1(2H)-pyrimidinyl]-1,2-benzisothiazol-3-yl}-p-tolyl}oxy}-, (tetrahydro-3-furyl)methyl ester, DL-]
[1]; [8]
  herbicidal effect rating, MOOVA: 6.0
[1]; [9]
  herbicidal effect rating, MOOVA: 9.0
[1]; [10]
  herbicidal effect rating, MOOVA: 9.0
[1]; [11]
  herbicidal effect rating, MOOVA: 9.0
[2]; [8]
  herbicidal effect rating, CYPSE: 0.0
[2]; [9]
  herbicidal effect rating, CYPSE: 3.0
[2]; [10]
  herbicidal effect rating, CYPSE: 5.0
[2]; [11]
  herbicidal effect rating, CYPSE: 5.0
[3]; [8]
  herbicidal effect rating, ECHORC: 0.0
[3]; [9]
  herbicidal effect rating, ECHORC: 3.0
[3]; [10]
  herbicidal effect rating, ECHORC: 3.0
[3]; [11]
  herbicidal effect rating, ECHORC: 4.0
Sagittaria pygmaea, L.; [8]
  herbicidal effect rating, SAGPY: 0.0
Sagittaria pygmaea, L.; [9]
  herbicidal effect rating, SAGPY: 0.0
Sagittaria pygmaea, L.; [10]
  herbicidal effect rating, SAGPY: 3.0
Sagittaria pygmaea, L.; [11]
  herbicidal effect rating, SAGPY: 3.0
Cyperus iria; [8]
  herbicidal effect rating, CYPIR: 0.0
Cyperus iria; [9]
  herbicidal effect rating, CYPIR: 6.0
Cyperus iria; [10]
  herbicidal effect rating, CYPIR: 9.0
Cyperus iria; [11]
  herbicidal effect rating, CYPIR: 9.0

## COC(=O)COc1cc(C)c(I)cc1-c1nsc2ccc(-n3c(=O)cc(C(F)(F)F)n(C)c3=O)cc12 [Example 469, Acetic acid, {{6-{5-[3,6-dihydro-3-methyl-2,6-dioxo-4-(trifluoromethyl)-1(2H)-pyrimidinyl]-1,2-benzisothiazol-3-yl}-4-iodo-m-tolyl}oxy}-, methyl ester]
[1]; [12]
  MOOVA herbicidal rating: 2.0
[1]; [13]
  MOOVA herbicidal rating: 4.5
[1]; [14]
  MOOVA herbicidal rating: 5.0
[1]; [15]
  MOOVA herbicidal rating: 8.0
[2]; [12]
  CYPSE herbicidal rating: 0.0
[2]; [13]
  CYPSE herbicidal rating: 4.5
[2]; [14]
  CYPSE herbicidal rating: 9.0
[2]; [15]
  CYPSE herbicidal rating: 6.0
[3]; [12]
  ECHORC herbicidal rating: 7.0
[3]; [13]
  ECHORC herbicidal rating: 9.0
[3]; [14]
  ECHORC herbicidal rating: 9.0
[3]; [15]
  ECHORC herbicidal rating: 9.0
Sagittaria pygmaea, L.; [12]
  SAGPY herbicidal rating: 0.0
Sagittaria pygmaea, L.; [13]
  SAGPY herbicidal rating: 1.5
Sagittaria pygmaea, L.; [14]
  SAGPY herbicidal rating: 2.5
Sagittaria pygmaea, L.; [15]
  SAGPY herbicidal rating: 3.0
Cyperus iria; [12]
  CYPIR herbicidal rating: 0.0
Cyperus iria; [13]
  CYPIR herbicidal rating: 1.5
Cyperus iria; [14]
  CYPIR herbicidal rating: 6.5
Cyperus iria; [15]
  CYPIR herbicidal rating: 7.0

## Cn1c(C(F)(F)F)cc(=O)n(-c2ccc3snc(C(=O)NOCc4ccccc4)c3c2)c1=O [Example 400, 1,2-Benzisothiazole-3-carboxamide, N-(benzyloxy)-5-[3,6-dihydro-3-methyl-2,6-dioxo-4-(trifluoromethyl)-1(2H)-pyrimidinyl]-]
[1]; [4]
  herbicidal effect rating, MOOVA: 6.0
[1]; [5]
  herbicidal effect rating, MOOVA: 7.0
[1]; [6]
  herbicidal effect rating, MOOVA: 7.0
[1]; [7]
  herbicidal effect rating, MOOVA: 9.0
[2]; [4]
  herbicidal effect rating, CYPSE: 0.0
[2]; [5]
  herbicidal effect rating, CYPSE: 0.0
[2]; [6]
  herbicidal effect rating, CYPSE: 0.0
[2]; [7]
  herbicidal effect rating, CYPSE: 0.0
[3]; [4]
  herbicidal effect rating, ECHORC: 0.0
[3]; [5]
  herbicidal effect rating, ECHORC: 0.0
[3]; [6]
  herbicidal effect rating, ECHORC: 0.0
[3]; [7]
  herbicidal effect rating, ECHORC: 0.0
Sagittaria pygmaea, L.; [4]
  herbicidal effect rating, SAGPY: 0.0
Sagittaria pygmaea, L.; [5]
  herbicidal effect rating, SAGPY: 0.0
Sagittaria pygmaea, L.; [6]
  herbicidal effect rating, SAGPY: 0.0
Sagittaria pygmaea, L.; [7]
  herbicidal effect rating, SAGPY: 0.0
Cyperus iria; [4]
  herbicidal effect rating, CYPIR: 3.0
Cyperus iria; [5]
  herbicidal effect rating, CYPIR: 3.0
Cyperus iria; [6]
  herbicidal effect rating, CYPIR: 9.0
Cyperus iria; [7]
  herbicidal effect rating, CYPIR: 9.0
